The values that follow come from US9994555B2, “Chromenone inhibitors of monocarboxylate transporters” (THE SCRIPPS RESEARCH INSTITUTE, priority 2015, dated 2018).

The term EC50 denotes the midpoint of the concentration-response curve.

SMILES strings stand for the structures.

For the test, the system named is Raji (Burkitt's) lymphoma cells. The test can be described thus: MTT assay for 4-day viability of Raji (Burkitt's) lymphoma cells. It is filed as cell-based. Particulars: Homo sapiens, 96 h, Raji (Burkitt's) lymphoma cells highly expressing MCT1, estimated EC50 given as bin, read-out: approximate potency (EC50). From the text:
Specific Examples of compounds of the invention, with estimated EC50 values determined using an MTT assay for 4-day viability of Raji (Burkitt's) lymphoma cells, a cell line known to highly express MCT1 and to be sensitive to small molecule MCT inhibitors,^4 are shown in Table 8. Assay protocols follow those described in the literature.^4 Other assays that are not described here but that are standard in the field, such as an assay for competitive inhibition of transport of radiolabeled lactic acid, an MCT substrate, may also be useful in establishing mechanism of action of these compounds.
`Cc1cc(=O)c2c(OCCCO)cc(Oc3ccnc4ccccc34)cc2o1` [Example 1, 5-(3-hydroxypropoxy)-2-methyl-7-(quinolin-4-yloxy)-4H-chromen-4-one]: the EC50 is 1000 to 10000 nM.

For `Cc1cc(=O)c2c(OCCCO)cc(OCc3cccc4ccccc34)cc2o1` [Example 2, 5-(3-hydroxypropoxy)-2-methyl-7-(naphthalen-1-ylmethoxy)-4H-chromen-4-one], the half-maximal effective concentration (EC50) is 1000 to 10000 nM.

On to `Cc1cc(=O)c2c(OCCCCO)cc(OCc3cccc4ccccc34)cc2o1` [Example 3, 5-(4-hydroxybutoxy)-2-methyl-7-(naphthalen-1-ylmethoxy)-4H-chromen-4-one], for which the EC50 is 1000 to 10000 nM.

On to `Cc1cc(=O)c2c(OCC(O)CO)cc(Oc3ccnc4ccccc34)cc2o1` (stereo not drawn) [Example 4, 5-(2,3-dihydroxypropoxy)-2-methyl-7-(quinolin-4-yloxy)-4H-chromen-4-one], for which the EC50 was at least 10000 nM.

Turning to `CC(C)c1cc(=O)c2c(OCCCCO)cc(OCc3cccc4ccccc34)cc2o1` [Example 5, 5-(4-hydroxybutoxy)-2-isopropyl-7-(naphthalen-1-ylmethoxy)-4H-chromen-4-one], the EC50 is 100 to 1000 nM.

For `CC(C)c1cc(=O)c2c(OCCCO)cc(OCc3ccnc4ccccc34)cc2o1` [Example 6, 5-(3-hydroxypropoxy)-2-isopropyl-7-(quinolin-4-ylmethoxy)-4H-chromen-4-one], the EC50 was 100 to 1000 nM.

As to `CC(C)c1cc(=O)c2c(OCCCO)cc(OCc3cccc4ccccc34)cc2o1` [Example 7, 5-(3-hydroxypropoxy)-2-isopropyl-7-(naphthalen-1-ylmethoxy)-4H-chromen-4-one], the EC50 is 100 to 1000 nM.

For the molecule `CC(C)c1cc(=O)c2c(OCc3ccccc3CO)cc(OCc3cccc4ccccc34)cc2o1` [Example 8, 5-((2-(hydroxymethyl)benzyl)oxy)-2-isopropyl-7-(naphthalen-1-ylmethoxy)-4H-chromen-4-one], the EC50 was at most 100 nM.

As for `CC(C)c1cc(=O)c2c(OCc3ccccc3CO)cc(Oc3ccnc4ccccc34)cc2o1` [Example 9, 5-((2-(hydroxymethyl)benzyl)oxy)-2-isopropyl-7-(quinolin-4-yloxy)-4H-chromen-4-one], the EC50 was at most 100 nM.

Regarding `CC(C)c1cc(=O)c2c(OCc3ccccc3CO)cc(OCc3cccnc3C(F)(F)F)cc2o1` [Example 10, 5-((2-(hydroxymethyl)benzyl)oxy)-2-isopropyl-7-((2-(trifluoromethyl)pyridin-3-yl)methoxy)-4H-chromen-4-one], the EC50 is at most 100 nM.

`CC(C)c1cc(=O)c2c(OCc3ccccc3CO)cc(Oc3ncccc3C(F)(F)F)cc2o1` [Example 11, 5-((2-(hydroxymethyl)benzyl)oxy)-2-isopropyl-7-((3-(trifluoromethyl)pyridin-2-yl)oxy)-4H-chromen-4-one]: the EC50 is at most 100 nM.

Turning to `CC(C)c1cc(=O)c2c(OCc3ccccc3CO)cc(OCc3cccc(C(F)(F)F)c3)cc2o1` [Example 12, 5-((2-(hydroxymethyl)benzyl)oxy)-2-isopropyl-7-((3-(trifluoromethyl)benzyl)oxy)-4H-chromen-4-one], the half-maximal effective concentration (EC50) was at most 100 nM.

For the molecule `CC(C)c1cc(=O)c2c(OCc3ccccc3CO)cc(OCc3ccccn3)cc2o1` [Example 13, 5-((2-(hydroxymethyl)benzyl)oxy)-2-isopropyl-7-(pyridin-2-ylmethoxy)-4H-chromen-4-one], the EC50 was at most 100 nM.

As to `CC(C)c1cc(=O)c2c(OCc3ccccc3CO)cc(OCc3cccnc3)cc2o1` [Example 14, 5-((2-(hydroxymethyl)benzyl)oxy)-2-isopropyl-7-(pyridin-3-ylmethoxy)-4H-chromen-4-one], the concentration for a half-maximal effect (EC50) was at most 100 nM.

For `CC(C)c1cc(=O)c2c(OCc3ccccc3CO)cc(OCc3ccncc3)cc2o1` [Example 15, 5-((2-(hydroxymethyl)benzyl)oxy)-2-isopropyl-7-(pyridin-4-ylmethoxy)-4H-chromen-4-one], the EC50 is 100 to 1000 nM.

With `CC(C)c1cc(=O)c2c(OCc3ccccc3CO)cc(OCc3cncc(C(F)(F)F)c3)cc2o1` [Example 16, 5-((2-(hydroxymethyl)benzyl)oxy)-2-isopropyl-7-((5-(trifluoromethyl)pyridin-3-yl)methoxy)-4H-chromen-4-one], the EC50 is at most 100 nM.

Turning to `CC(C)c1cc(=O)c2c(OCc3ccccc3CO)cc(Oc3ccncc3C(F)(F)F)cc2o1` [Example 17, 5-((2-(hydroxymethyl)benzyl)oxy)-2-isopropyl-7-((3-(trifluoromethyl)pyridin-4-yl)oxy)-4H-chromen-4-one], the EC50 is at most 100 nM.

As for `CC(C)c1cc(=O)c2c(OCc3ccccc3CO)cc(OCc3cncs3)cc2o1` [Example 18, 5-((2-(hydroxymethyl)benzyl)oxy)-2-isopropyl-7-(thiazol-5-ylmethoxy)-4H-chromen-4-one], the EC50 is 100 to 1000 nM.

Turning to `CC(C)c1cc(=O)c2c(OCc3ccccc3CO)cc(OCc3cccc4cccnc34)cc2o1` [Example 19, 5-((2-(hydroxymethyl)benzyl)oxy)-2-isopropyl-7-(quinolin-8-ylmethoxy)-4H-chromen-4-one], the EC50 is at most 100 nM.

Consider `CC(C)c1cc(=O)c2c(OCc3ccccc3CO)cc(OCc3ccc4ccccc4n3)cc2o1` [Example 20, 5-((2-(hydroxymethyl)benzyl)oxy)-2-isopropyl-7-(quinolin-2-ylmethoxy)-4H-chromen-4-one], for which the EC50 is at most 100 nM.

For `CC(C)c1cc(=O)c2c(OCc3ccccc3CO)cc(OCc3ccc4ncccc4c3)cc2o1` [Example 21, 5-((2-(hydroxymethyl)benzyl)oxy)-2-isopropyl-7-(quinolin-6-ylmethoxy)-4H-chromen-4-one], the EC50 was 100 to 1000 nM.

For `O=c1cc(C2CC2)oc2cc(OCc3cccc4ccccc34)cc(OCc3ccccc3CO)c12` [Example 22, 2-cyclopropyl-5-((2-(hydroxymethyl)benzyl)oxy)-7-(naphthalen-1-ylmethoxy)-4H-chromen-4-one], the EC50 is 100 to 1000 nM.

Turning to `O=c1cc(C2CC2)oc2cc(OCc3cccnc3C(F)(F)F)cc(OCc3ccccc3CO)c12` [Example 23, 2-cyclopropyl-5-((2-(hydroxymethyl)benzyl)oxy)-7-((2-(trifluoromethyl)pyridin-3-yl)methoxy)-4H-chromen-4-one], the concentration for a half-maximal effect (EC50) was at most 100 nM.

As to `CC(C)c1cc(=O)c2c(OCc3ccccc3CO)cc(OCc3ccnc4ccccc34)cc2o1` [Example 24, 5-((2-(hydroxymethyl)benzyl)oxy)-2-isopropyl-7-(quinolin-4-ylmethoxy)-4H-chromen-4-one], the EC50 was at most 100 nM.

For `CC(C)c1cc(=O)c2c(OCc3ccccc3CO)cc(OCc3cnc(Cl)c4ccccc34)cc2o1` [Example 25, 7-((1-chloroisoquinolin-4-yl)methoxy)-5-((2-(hydroxymethyl)benzyl)oxy)-2-isopropyl-4H-chromen-4-one], the EC50 is at most 100 nM.

Regarding `O=c1cc(-c2ccccc2)oc2cc(Oc3ccnc4ccccc34)cc(OCCCO)c12` [Example 26, 5-(3-hydroxypropoxy)-2-phenyl-7-(quinolin-4-yloxy)-4H-chromen-4-one], the EC50 was 1000 to 10000 nM.

Regarding `O=c1cc(-c2ccccc2)oc2cc(Oc3ccnc4ccccc34)cc(OCC(O)CO)c12` (stereo not drawn) [Example 27, 5-(2,3-dihydroxypropoxy)-2-phenyl-7-(quinolin-4-yloxy)-4H-chromen-4-one], the EC50 was at least 10000 nM.
